In patent US8691818B2, “Cyclic triazo and diazo sodium channel blockers” (University Of Greenwich, priority 2008, dated 2014):
Where a name gives a salt, the structure may show the parent alone.

How the values were obtained:
[1] = test system: sodium channel; assay: [14C]guanidine flux: veratrine-evoked uptake of [14C]guanidine into rat forebrain synaptosomes (primary sodium channel assay); format: biochemical; conditions: 30° for 2½ min
Procedure: The screening strategy is designed to select compounds with appropriate sodium channel blocking activity and low side effect liability. To this end all compounds are processed through the primary sodium channel assay (veratrine-evoked uptake of [^14C]guanidine into rat forebrain synaptosomes) and IC50 values computed from generated concentration-effect curves.
Experiments were performed using forebrain (whole brain less cerebellum/medulla) from Male Wistar rats weighing 175-250 g. All efforts were made to reduce the number of animals used and all experiments were carried out in accordance with the UK Animals (Scientific Procedures) Act, 1986 and the European Community Council Directive of 24 Nov. 1986 (86/609/EEC). Following killing of animals by stunning and decapitation, the forebrain (whole brain less cerebellum/medulla) was rapidly dissected and transferred to a weighed tube containing ice-cold 0.25M sucrose.
Synaptosomes (heavy and light mitochondrial fraction containing synaptosomes) were prepared by transferring the forebrain (of known wet weight) to a glass Potter vessel to which 9 volumes ice-cold 0.25M sucrose had been added and homogenising, using a teflon pestle, by 8 ‘up and down strokes’ of a Braun Potter S motor driven homogeniser set to 900 rpm. The resulting homogenate was centrifuged at 1036×g at 4° for 10 min and the supernatant collected. The remaining pellet was resuspended, as above, in fresh ice-cold 0.25M sucrose and the centrifugation step repeated. The supernatant fractions were pooled and centrifuged at 40,000×g (average) at 4° for 15 min and the resulting pellet resuspended in the appropriate assay buffer at a concentration of 20-25 mg wet weight per ml appropriate assay buffer.
Both assays were carried out using 14 ml polypropylene test tubes to which a range of concentrations of the compounds under test were added.
The [^14C] guanidinine flux assay was measured using the method of Pauwels P J et al (1986) but carried out@30° for 2½ min.
(§1) Data are presented as mean±sem of number of experiments indicated in brackets.

[2] = biological target: T1, DiHydroFolate Reductase (DHFR) (Rattus norvegicus, UniProt Q920D2); assay: Inhibition of binding of [3H]methotrexate to rat liver homogenate supernatant; conditions: for inhibition at 125 µM: read-out: [3H]mtx binding (% inhibition @ 125 μM)
T1 construct: from tissue; host or cells: rat liver homogenate supernatant
T1 sequence (Q920D2 1-187): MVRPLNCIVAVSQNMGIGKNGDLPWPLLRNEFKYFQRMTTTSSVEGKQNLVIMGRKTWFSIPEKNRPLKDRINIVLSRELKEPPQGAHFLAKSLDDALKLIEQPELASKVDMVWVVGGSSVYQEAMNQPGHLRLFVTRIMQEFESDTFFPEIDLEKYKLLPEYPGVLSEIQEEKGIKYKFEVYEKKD
Procedure: All steps were carried out at 4° (or on ice). Freshly dissected rat liver was dissected into 0.25M ice-cold Sucrose and subsequently homogenised (U-turrax) in 50 mM pH 6.0 phosphate buffer (10 ml/g tissue) containing 15 mM Dithiothreitol. The resulting homogenate was centrifuged@47,500×g for 20 min and supernatant (filtered through cotton wool to remove fatty lumps) stored @ −80° before use (Rothenberg et al).
Inhibition of the binding of [^3H]methotrexate to rat liver homogenate supernatant fractions were carried out essentially as described by Arons et al, 1975.
as §1

Compound | melting point [°C] | other results
Cn1nc(-c2cccc3c2CCCC3)c(N)nc1=N (as salt: methanesulfonate) [CEN-120, 5(3)-Amino-6-[1-(5,6,7,8-tetrahydronaphthyl)]-2,3(2,5)-dihydro-3(5)-imino-2-methyl-1,2,4-triazine methanesulfonate] | 236 to 237 | 
CCn1nc(-c2ccc3ccccc3c2)c(N)nc1=N (as salt: methanesulfonate) [CEN-75, 5(3)-Amino-6-(2-naphthyl)-2,3(2,5)-dihydro-3(5)-imino-2-ethyl-1,2,4-triazine methanesulfonate] | 175 to 177 | 
Cn1nc(-c2ccc(Oc3ccccc3)cc2)c(N)nc1=N (as salt: methanesulfonate) [CEN-102, 5(3)-Amino-6-(4-phenoxyphenyl)-2,3(2,5)-dihydro-3(5)-imino-2-methyl-1,2,4-triazine methanesulfonate] | 174 to 176 | 
Cn1nc(-c2sc(Cl)c(Cl)c2Cl)c(N)nc1=N (as salt: methanesulfonate) [CEN-194, 5(3)-Amino-6-{2-(3,4,5-trichloro)thienyl}-2,3(2,5)-dihydro-3(5)-imino-2-methyl-1,2,4-triazine methanesulfonate] | 192 to 194 | 
CCn1nc(-c2cc(C(C)(C)C)cc(C(C)(C)C)c2)c(N)nc1=N (as salt: methanesulphonate) [CEN-189, 5(3)-Amino-6-(3,5 bis-tert-butylphenyl)-2,3(2,5)-dihydro-3(5)-imino-2-ethyl-1,2,4-triazine methanesulphonate] | 258 to 261 | 
Cn1nc(-c2ccc3ccccc3c2)c(N)nc1=N (as salt: methanesulfonate) [CEN-76, 5(3)-Amino-6-(2-naphthyl)-2,3(2,5)-dihydro-3(5)-imino-2-methyl-1,2,4-triazine methanesulfonate] | 243 to 244 | 
Cn1nc(C2(c3ccc(Cl)cc3)CCCC2)c(N)nc1=N (as salt: methanesulfonate) [CEN-150, 5(3)-Amino-6-{1-[1-(4-chlorophenyl)]cyclopentyl}-2,3(2,5)-dihydro-3(5)-imino-2-methyl-1,2,4-triazine methanesulfonate] | 272 to 273 | 
COc1cc(-c2nn(C)c(=N)nc2N)cc(OC)c1OC (as salt: methanesulfonate) [CEN-101, 5(3)-Amino-6-(3,4,5-trimethoxyphenyl)-2,3(2,5)-dihydro-3(5)-imino-2-methyl-1,2,4-triazine methanesulfonate] | 258 to 259 | 
Cn1nc(-c2cc(C(F)(F)F)cc(C(F)(F)F)c2)c(N)nc1=N (as salt: methanesulfonate) [CEN-99, 5(3)-Amino-6-[3,5-(bis-trifluoromethyl)phenyl]-2,3(2,5)-dihydro-3(5)-imino-2-methyl-1,2,4-triazine methanesulfonate] | 179 to 181 | 
CCn1nc(-c2cc(OC)c(OC)c(OC)c2)c(N)nc1=N (as salt: methanesulfonate) [CEN-119, 5(3)-Amino-6-(3,4,5-trimethoxyphenyl)-2,3(2,5)-dihydro-3(5)-imino-2-ethyl-1,2,4-triazine methanesulfonate] | 305 to 306 | 
CCn1nc(-c2sc(Cl)c(Cl)c2Cl)c(N)nc1=N (as salt: methanesulfonate) [CEN-195, 5(3)-Amino-6-{2-(3,4,5-trichloro)thienyl}-2,3(2,5)-dihydro-3(5)-imino-2-ethyl-1,2,4-triazine methanesulfonate] | 202 to 204 | 
CCn1nc(-c2cccc(-c3ccccc3)c2)c(N)nc1=N (as salt: methanesulfonate) [CEN-162, 5(3)-Amino-6-(3-biphenyl)-2,3(2,5)-dihydro-3(5)-imino-2-ethyl-1,2,4-triazine methanesulfonate] | 224 to 226 | 
Cn1nc(-c2cccc(-c3ccccc3)c2)c(N)nc1=N (as salt: methanesulfonate) [CEN-161, 5(3)-Amino-6-(3-biphenyl)-2,3(2,5)-dihydro-3(5)-imino-2-methyl-1,2,4-triazine methanesulfonate] | 180 to 181 | 
CCn1nc(-c2cccs2)c(N)nc1=N (as salt: methanesulfonate) [CEN-62, 5(3)-Amino-6-(2-thienyl)-2,3(2,5)-dihydro-3(5)-imino-2-ethyl-1,2,4-triazine methanesulfonate] | 194 to 196 | 
Nc1nnc(-c2ccccc2OC(F)(F)F)c(N)n1 [CEN-56, 3,5-Diamino-6-(2-trifluoromethoxyphenyl)-1,2,4-triazine] | 148 to 150 | 
Cn1nc(-c2cccs2)c(N)nc1=N (as salt: methanesulfonate) [CEN-61, 5(3)-Amino-6-(2-thienyl)-2,3(2,5)-dihydro-3(5)-imino-2-methyl-1,2,4-triazine methanesulfonate] | 201 to 202 | 
Cn1nc(-c2ccccc2OC(F)F)c(N)nc1=N (as salt: methanesulfonate) [CEN-146, 5(3)-Amino-6-(2-difluoromethoxyphenyl)-2,3(2,5)-dihydro-3(5)-imino-2-methyl-1,2,4-triazine methanesulfonate] | 213 to 215 | 
Cn1nc(C(C)(c2ccccc2)c2ccccc2)c(N)nc1=N (as salt: methanesulfonate) [CEN-149, 5(3)-Amino-6-(1,1-diphenylethyl)-2,3(2,5)-dihydro-3(5)-imino-2-methyl-1,2,4-triazine methanesulfonate] | 240 to 242 | 
Cn1nc(-c2cc(Br)c(Br)o2)c(N)nc1=N (as salt: methanesulfonate) [CEN-135, 5(3)-Amino-6-[2-(4,5-dibromofuryl)]-2,3(2,5)-dihydro-3(5)-imino-2-methyl-1,2,4-triazine methanesulfonate] | 183 to 185 | 
Cn1nc(-c2cc(F)c(F)cc2Cl)c(N)nc1=N (as salt: mesylate) [CEN-204, 5(3)-Amino-6-(2-chloro-4,5-difluoro-5-phenyl)-2,3(2,5)-dihydro-3(5)-imino-2-methyl-1,2,4-triazine mesylate] | 319 to 321 | 
CCn1nc(-c2cc(C(F)(F)F)cc(Cl)c2F)c(N)nc1=N (as salt: mesylate) [CEN-203, 5(3)-Amino-6-(3-chloro-2-fluoro-5-trifluoromethyphenyl)-2,3(2,5)-dihydro-3(5)-imino-2-ethyl-1,2,4-triazine mesylate] | 277 to 279 | 
Cn1nc(-c2cccs2)c(N)nc1=N [CEN-61, 5(3)-Amino-6-(2-thienyl)-2,3(2,5)-dihydro-3(5)-imino-2-methyl-1,2,4-triazine methanesulfonate] |  | IC50 [1]: 676 µM; inhibition at 125 µM [2]: 87%
Cn1nc2c3ccccc3c3ccccc3c2nc1=N [CEN-136] |  | IC50 [1]: 229 µM; inhibition at 125 µM [2]: 27%
COc1ccc2c(OC)cccc2c1-c1nnc(N)nc1N [CEN-158] |  | IC50 ([1]; listed as 158): > 1000 µM; [3H]mtx binding (% inhibition @ 125 μM) ([2]; listed as 158, 125 µM): −1%
Nc1nnc(-c2ccc3ccccc3n2)c(N)n1 [CEN-173, 3,5-Diamino-6-(2-quinolyl)-1,2,4-triazine] |  | IC50 [1]: 159 µM; inhibition at 125 µM [2]: 34%
COc1cc(-c2nn(C)c(=N)nc2N)cc(OC)c1OC [CEN-101, 5(3)-Amino-6-(3,4,5-trimethoxyphenyl)-2,3(2,5)-dihydro-3(5)-imino-2-methyl-1,2,4-triazine methanesulfonate] |  | IC50 [1]: > 1000 µM; inhibition at 125 µM [2]: 65%
Cn1nc(-c2cc(Br)c(Br)o2)c(N)nc1=N [CEN-135, 5(3)-Amino-6-[2-(4,5-dibromofuryl)]-2,3(2,5)-dihydro-3(5)-imino-2-methyl-1,2,4-triazine methanesulfonate] |  | IC50 [1]: 43.7 µM; inhibition at 125 µM [2]: 89%
Nc1nnc(-c2ccco2)c(-c2ccco2)n1 [CEN-196, 3-Amino-5,6-bis(2-furyl)-1,2,4-triazine] |  | IC50 [1]: 912 µM; inhibition at 99 µM ([2]; read-out: [3H]mtx binding % inhibition (* 99 μM, *** uses fresh batch of supernatant), 99 μM, fresh batch of supernatant): 41%
Nc1nnc(-c2cccc(OCc3ccc(C(F)(F)F)cc3C(F)(F)F)c2)c(N)n1 [CEN-171, 3,5-Diamino-6-[3-(2,4-trifluoromethylbenzyloxy)phenyl]-1,2,4-triazine] |  | IC50 [1]: 2 µM; [3H]mtx binding (% inhibition @ 125 μM) [2]: 91%
